Reference: patent US11320438B2, “Isotopic methods for measurement of tryptophan and metabolites thereof” (ELECTROPHORETICS LIMITED, priority 2015, dated 2022)
Each block holds one compound with its values, some of them ahead of it.

How the values were obtained:
SKOV-3 cells = experiment: Degradation of tryptophan and 1-MT in SKOV-3 cell culture supernatants (TMT sixplex LC-MS/MS); format: in vitro ADME, human; settings: for degradation to methyl-kynurenine: days 0-6, 1000 μM 1-MT with 70 μM tryptophan, or 200 μM 1-MT with no added tryptophan; for depletion of the substance from the media: after 6 days of incubation
Method: (§1) SKOV-3 ovarian carcinoma cells were cultured in McCoy's 5A Medium (BioConcept, Allschwil, Switzerland) supplemented with L-Tryptophan as indicated (Sigma-Aldrich, Taufkirchen, Germany), 300 mg/l Glutamine (Carl Roth, Karlsruhe, Germany), 10% FBS (Thermo Fisher Scientific Inc., Waltham, Mass., USA) and 100 U/mL penicillin and 100 μg/mL streptomycin (PAA Laboratories, Pasching, Austria). Human embryonic kidney (HEK) cells were cultured in DMEM (PAA Laboratories), 10% FBS (Thermo Scientific) and 100 U/mL penicillin and 100 μg/mL streptomycin (PAA Laboratories). Peripheral blood mononuclear cells (PBMC) were isolated from healthy, non-related blood-donors by density-gradient centrifugation using lymphocyte separation medium LSA 1077 (PAA Laboratories) and cultured in RPMI 1640 (PAA Laboratories) containing 10% FBS (Thermo Fisher Scientific Inc) and 100 U/mL penicillin and 100 μg/mL streptomycin (PAA Laboratories). For the generation of dendritic cells (DC), CD14+ cells were separated using the magnetic activated cell sorting (MACS) technology (Miltenyi Biotec, Bergisch Gladbach, Germany) and plated in RPMI 1640 (Cambrex, Verviers, Belgium) containing 10% FBS, 200 IU/mL interleukin-4 and 1000 IU/mL GM-CSF (Immunotools, Friesoythe, Germany) for 7 days. All cells were routinely tested for contamination by the Multiplex cell Contamination Test (44). Cultures were incubated at 37° C. in a 5% CO2 atmosphere. 20 mM stock solutions (of 1-methyl-D-tryptophan (1-D-MT, lot numbers: 09315BH, 08007EJ) and 1-methyl-L-tryptophan (1-L-MT, lot numbers: 08023HE, 15399MJ) (Sigma-Aldrich) were prepared by dissolving the inhibitors in 0.1 N NaOH. The pH was adjusted to 7.5 using hydrochloric acid. To avoid contamination of the cell cultures, the stock solutions were filtered through 0.2 μm filters. Interferon-gamma (IFN-g) was purchased from Immunotools (Friesoythe, Germany).
(§2) 50 μL of each single cell culture supernatant was labelled with TMT® sixplex reagents (Thermo Fisher Scientific).
The dry TMT® sixplex mixtures were reconstituted in 300 μL of water:acetonitrile 95:5 with 0.1% trifluoroacetic acid (buffer A). 150 μL were fractionated by reversed phase chromatography (Nucleosil 120-5 C18 column, 250 mm×4.6 mm, Macherey Nagel) using a Waters 2695 HPLC with UV detection at 214 nm. After loading, the sample was washed 4 min with buffer A. Then, the substances were eluted by increasing the acetonitrile content within 40 min to 55%. The flow rate was kept at 1.5 mL/min over the entire gradient. The fraction from 18-30 minutes was collected and dried.
(§3) Samples were either measured on a QTof II (Waters) mass spectrometer coupled to an UPLC nanoLC (Waters) on an LTQ Orbitrap Velos Pro (Thermo Scientific) coupled to a Proxeon nanoLC-II (Thermo Scientific) or a triple quadrupole system coupled to nanoLC-II (EASY-nLC II TSQ Vantage system). The samples were resolved in 150 μl 2% ACN, 0.1% formic acid (1 μL sample=1 μL mixed supernatant equivalent).
The SIM m/z range was from 350-500 Th with a resolution of 60000 and an AGC setting of 5e4 with a maximum scan time of 500 ms. MS/MS was acquired as TOP10 in HCD mode with a resolution of 7500 and an AGC setting of 5e4 with a maximum scan time of 500 ms. Isolation width was 1.5 amu and normalized collision energy was 60. The default charge state of the precursor was set to z=1. All other charge states were rejected. Analytes of interest were acquired in MSMS mode using an inclusion list only mode (±50 ppm) and all other analytes not included in the list were discarded.

TDO = target: T1, TDO (Homo sapiens, UniProt P48775); experiment: Degradation in supernatants of HEK cells expressing TDO; format: in vitro ADME; settings: day 0 vs day 6
T1 construct: expressed in transfected cells; host or cells: HEK293 cells, neomycin-selected
Method: SKOV-3 ovarian carcinoma cells were cultured in McCoy's 5A Medium (BioConcept, Allschwil, Switzerland) supplemented with L-Tryptophan as indicated (Sigma-Aldrich, Taufkirchen, Germany), 300 mg/l Glutamine (Carl Roth, Karlsruhe, Germany), 10% FBS (Thermo Fisher Scientific Inc., Waltham, Mass., USA) and 100 U/mL penicillin and 100 μg/mL streptomycin (PAA Laboratories, Pasching, Austria). Human embryonic kidney (HEK) cells were cultured in DMEM (PAA Laboratories), 10% FBS (Thermo Scientific) and 100 U/mL penicillin and 100 μg/mL streptomycin (PAA Laboratories). […] All cells were routinely tested for contamination by the Multiplex cell Contamination Test (44). Cultures were incubated at 37° C. in a 5% CO2 atmosphere.
The full length cDNA sequence of IDO1 and TDO was cloned via Gateway® cloning into pDEST-Flag-C, a Gateway® compatible overexpression vector containing a single C-terminal FLAG-tag, resulting in pDEST-TDO-FLAG-C and pDEST-IDO1-FLAG-C.
Basis for the pDEST-FLAG-C was the pDEST26 vector (Invitrogen). The 6×His-tag of pDEST26 was removed with site-directed mutagenesis PCR, resulting in pDEST. The single C-terminal Flag-tag was introduced into pDEST, by site-directed mutagenesis PCR, resulting in Flag-C. […] Cells were selected using 1.5 mg/ml neomycin (Sigma-Aldrich).
as §2, §3

human dendritic cells = experiment: 1-MT degradation in interferon-gamma stimulated human dendritic cells; format: in vitro ADME; settings: IFN gamma, after 6 days of incubation
Method: as §1, §2, §3
Immune cells can also express tryptophan-degrading enzymes and tryptophan degradation is known to exert potent immunosuppressive effects (9). To assess whether also immune cells, such as dendritic cells, degrade 1-MT to methyl-kynurenine, three independent biological samples of supernatants of human dendritic cells from two different donors were analysed (only donor 1 shown). […]

[1] = target: T2, aryl hydrocarbon receptor (Homo sapiens, UniProt P35869); experiment: qRT-PCR of AHR target genes in SKOV-3 cells; format: cell-based
T2 construct: Treatment of SKOV-3 cells with 1-D/L-MT under tryptophan-free conditions induced the AHR target genes CYP1A1 and TIPARP; endogenous in cells; host or cells: SKOV-3 ovarian carcinoma cells
T2 sequence (P35869 11-848): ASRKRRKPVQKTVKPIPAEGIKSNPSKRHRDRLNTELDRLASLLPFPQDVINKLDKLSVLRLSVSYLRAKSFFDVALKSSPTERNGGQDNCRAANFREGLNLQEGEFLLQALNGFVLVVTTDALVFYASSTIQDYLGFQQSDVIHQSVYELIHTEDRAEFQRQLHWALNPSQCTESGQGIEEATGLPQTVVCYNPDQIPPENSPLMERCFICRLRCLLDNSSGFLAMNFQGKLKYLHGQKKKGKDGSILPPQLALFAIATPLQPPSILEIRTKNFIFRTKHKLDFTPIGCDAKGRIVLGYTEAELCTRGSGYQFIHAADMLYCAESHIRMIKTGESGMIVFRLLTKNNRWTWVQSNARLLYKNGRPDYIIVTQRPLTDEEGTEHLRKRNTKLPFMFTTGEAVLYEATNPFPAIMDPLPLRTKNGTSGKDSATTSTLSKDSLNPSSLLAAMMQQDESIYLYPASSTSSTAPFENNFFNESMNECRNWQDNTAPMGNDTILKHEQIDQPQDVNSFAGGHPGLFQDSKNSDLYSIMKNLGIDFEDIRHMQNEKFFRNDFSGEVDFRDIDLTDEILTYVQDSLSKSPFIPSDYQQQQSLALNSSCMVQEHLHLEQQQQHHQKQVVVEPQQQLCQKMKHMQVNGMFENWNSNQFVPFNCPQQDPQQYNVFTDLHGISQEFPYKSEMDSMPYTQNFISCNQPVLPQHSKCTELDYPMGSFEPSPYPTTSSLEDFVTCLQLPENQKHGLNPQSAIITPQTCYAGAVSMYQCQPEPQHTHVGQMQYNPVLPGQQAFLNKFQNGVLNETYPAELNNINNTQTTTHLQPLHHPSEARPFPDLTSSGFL
Method: as §1, with “20 mM stock solutions (of 1-methyl-D-tryptophan (1-D-MT, lot numbers: 09315BH, 08007EJ) and 1-methyl-L-tryptophan (1-L-MT, lot numbers: 08023HE, 15399MJ) (Sigma-Aldrich) were prepared by dissolving the inhibitors in 0.1 N NaOH. The pH was adjusted to 7.5 using hydrochloric acid. To avoid contamination of the cell cultures, the stock solutions were filtered through 0.2 μm filters. Interferon-gamma (IFN-g) was purchased from Immunotools (Friesoythe, Germany).” left out
Total RNA was isolated with the Qiagen RNAeasy RNA isolation kit (Hilden, Germany) and cDNA was synthesized with the Applied Biosystems reverse-transcription-Kit (Foster City, USA) according to manufacturer's instructions. […] The size of the amplicons was analyzed by loading the samples and a 100 bp ladder (Invitrogen, Leek, Netherlands) on a 2% agarose gel, which was then stained with ethidium bromide and analyzed under UV light. […] Relative quantification of gene expression was determined by comparison of threshold values. […]

[2] = Serum analysis of LPS-stimulated mice injected with 1-L-MT; settings: 1 mg/mouse 1-L-MT i.p.
Method: Animal work was supervised by institutional animal protection officials in accordance with the National Institute of Health guidelines Guide for the Care and Use of Laboratory Animals. C57BL/6N mice were purchased from Charles River (Sulzfeld, Germany). […] The blood was centrifuged to obtain serum, which was finally prepared for LC-MS/MS measurements.
50 μL of serum sample was precipitated with 50 μL TCA-solution (60 g/l) at 4° C. overnight. The suspension was centrifuged for 15 minutes at 4° C. at 6000 g. The pellet was discarded and the supernatant used for further experiments after neutralization with 1 M NaOH to pH 7-8.
66 μL of each precipitated and neutralized mouse serum sample were diluted with 6 μL of 1M triethylammonium bicarbonate (TEAB, Sigma-Aldrich) and then 24 μL of a 60 mM TMT reagent stock solution in ACN (LichroSolv, VWR) were added. The reaction was incubated for 1 hour at room temperature and finally quenched by adding 12 μL of 2.5% aqueous hydroxylamine solution (Sigma-Aldrich). The respective six labelled serum samples to be compared were mixed and dried.
For the Orbitrap MS runs the mixed mouse serum sample was dissolved in 2% ACN, 0.1% formic acid and ˜0.88 μL of mixed serum equivalent was loaded on column.

HEK control cells (WT) = experiment: Degradation in supernatants of HEK control cells (WT); format: in vitro ADME, human; settings: data not shown
Method: SKOV-3 ovarian carcinoma cells were cultured in McCoy's 5A Medium (BioConcept, Allschwil, Switzerland) supplemented with L-Tryptophan as indicated (Sigma-Aldrich, Taufkirchen, Germany), 300 mg/l Glutamine (Carl Roth, Karlsruhe, Germany), 10% FBS (Thermo Fisher Scientific Inc., Waltham, Mass., USA) and 100 U/mL penicillin and 100 μg/mL streptomycin (PAA Laboratories, Pasching, Austria). Human embryonic kidney (HEK) cells were cultured in DMEM (PAA Laboratories), 10% FBS (Thermo Scientific) and 100 U/mL penicillin and 100 μg/mL streptomycin (PAA Laboratories). Peripheral blood mononuclear cells (PBMC) were isolated from healthy, non-related blood-donors by density-gradient centrifugation using lymphocyte separation medium LSA 1077 (PAA Laboratories) and cultured in RPMI 1640 (PAA Laboratories) containing 10% FBS (Thermo Fisher Scientific Inc) and 100 U/mL penicillin and 100 μg/mL streptomycin (PAA Laboratories). […]
Samples were either measured on a QTof II (Waters) mass spectrometer coupled to an UPLC nanoLC (Waters) on an LTQ Orbitrap Velos Pro (Thermo Scientific) coupled to a Proxeon nanoLC-II (Thermo Scientific) or a triple quadrupole system coupled to nanoLC-II (EASY-nLC II TSQ Vantage system). […]

[3] = SKOV-3 cells, tryptophan-free conditions, qRT-PCR

T1 sequence (P48775 whole entry): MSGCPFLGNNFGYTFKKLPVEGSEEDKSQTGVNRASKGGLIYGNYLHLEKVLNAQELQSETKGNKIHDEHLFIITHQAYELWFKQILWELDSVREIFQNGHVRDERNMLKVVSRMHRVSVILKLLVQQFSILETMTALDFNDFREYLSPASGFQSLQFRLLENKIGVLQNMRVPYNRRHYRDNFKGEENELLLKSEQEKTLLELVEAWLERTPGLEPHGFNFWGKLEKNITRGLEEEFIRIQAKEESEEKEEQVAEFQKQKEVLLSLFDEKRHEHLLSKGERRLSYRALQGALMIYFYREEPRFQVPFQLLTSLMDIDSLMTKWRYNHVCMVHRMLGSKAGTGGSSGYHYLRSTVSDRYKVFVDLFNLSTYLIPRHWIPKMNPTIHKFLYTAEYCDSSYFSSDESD

- degradation to methyl-kynurenine (SKOV-3 cells): degraded to methyl-kynurenine
- increase in methyl-kynurenine after treatment (TDO): not
- methyl-kynurenine in the media (human dendritic cells): increase in methyl-kynurenine
- reduction of substrate in the media (human dendritic cells): no clear reduction
Compound: Cn1cc(C[C@@H](N)C(=O)O)c2ccccc21 [1-D-MT, 1-methyl-D-tryptophan]
- metabolism of tryptophan to kynurenine in treated samples (SKOV-3 cells; D-MT compared with L-MT samples): more quickly and higher kynurenine levels were reached

- depletion of the substance from the media (SKOV-3 cells): completely depleted
- degradation to methyl-kynurenine (SKOV-3 cells): degraded more quickly than 1-D-MT
- increase in methyl-kynurenine after treatment (TDO): very slight increase
- methyl-kynurenine in the media (human dendritic cells): increase in methyl-kynurenine
- reduction of substrate in the media (human dendritic cells): reduction
Compound: Cn1cc(C[C@H](N)C(=O)O)c2ccccc21 [1-L-MT, 1-methyl-L-tryptophan]
- serum methyl-kynurenine versus mice treated with LPS alone [2]: significantly higher concentrations of methyl-kynurenine

- degradation by HEK control cells (HEK control cells (WT)): degraded neither
- degradation / decrease of substrate in cell supernatants (TDO): no decrease
Compound: Cn1cc(C[C@H](N)C(=O)O)c2ccccc21 [1-MT, 1-methyl-tryptophan]

More lines, now with the values behind:

Compound: Cn1cc(CC(N)C(=O)O)c2ccccc21 [1-D/L-MT]
- induction of AHR target gene CYP1A1 [1, 3]: induced
- induction of AHR target gene TIPARP [1, 3]: induced

Compound: N[C@H](Cc1c[nH]c2ccccc12)C(=O)O [D-tryptophan]
- depletion of the substance from the media (SKOV-3 cells): not entirely depleted

Compound: N[C@@H](Cc1c[nH]c2ccccc12)C(=O)O [L-tryptophan]
- depletion of the substance from the media (SKOV-3 cells): completely depleted

Compound: CNc1ccccc1C(=O)C[C@H](N)C(=O)O [methyl-kynurenine, (S)—N-methyl kynurenine]
- activation of the AHR ([1]; inferred from treatment of SKOV-3 cells with 1-D/L-MT): capable of activating the AHR

Compound: N[C@@H](Cc1c[nH]c2ccccc12)C(=O)O [tryptophan]
- degradation by HEK control cells (HEK control cells (WT)): degraded neither
- degradation / decrease of substrate in cell supernatants (TDO): degraded tryptophan to kynurenine
